Entries after “also recorded” stand apart in the source; their conditions may differ. Like-named read-outs stand apart in the source and are kept apart here.
What was measured:
A549 cells [1] = assay: cell cycle (BrdU labeling, FACS) and cell morphology; type: cell-based, human; conditions: for effect on cell cycle / DNA synthesis: FACS: 4 h, TSA 300 nM, tubacin 2 μM
Description: Bromodeoxyuridine labeling and fluorescence-activated cell sorting (FACS) were performed as described (K. M. Koeller et al., Chemistry & Biology, 10 (5) (2003) pp. 397-410). […] Samples were rinsed in PBS, trypsinized, and fixed for two hours in 70% ethanol/30% PBS (4° C.). Cells were then washed once in PBS and stored overnight in PBS (4° C.). To measure acetylated tubulin levels, samples were blocked for 45 minutes in ADB, aspirated, and incubated in ADB with anti-acetylated tubulin (1:500) overnight (4° C.). Samples were washed twice in ADB and incubated in ADB with FITC-conjugated anti-mouse IgG (goat; 1:200) for one hour (room temperature). After washing twice in TBS, cells were resuspended in 100 μL of ribonuclease A (100 μg/mL) and incubated for five minutes (37° C.). To measure the DNA content, 400 μL of propidium iodide (50 μg/mL) was added to the samples and incubated for one hour (room temperature). Samples were analyzed using a FACScanII flow cytometer (Becton-Dickinson), at the Dana Farber Cancer Institute, exciting at 488 nm and measuring the acetylated tubulin-linked FITC fluorescence through a 514 nm bandpass filter and the PI fluorescence through a 600 nm wave-length filter. Cell cycle distributions were calculated from 10,000 cells and modeled using ModFit LT (V2.0) software.

HDAC6F H611A mutant = target: T1, HDAC6F H611A mutant (Homo sapiens, UniProt Q9UBN7, H611A); assay: in vitro deacetylase assay with [3H]-histones, HDAC6F H611A mutant; type: biochemical; conditions: [3H]-labeled histones, n=3
T1 construct: made in house; host or cells: TAg Jurkat cells, transient transfection, anti-FLAG M2 immunoprecipitation
T1 sequence (Q9UBN7 whole entry H611A): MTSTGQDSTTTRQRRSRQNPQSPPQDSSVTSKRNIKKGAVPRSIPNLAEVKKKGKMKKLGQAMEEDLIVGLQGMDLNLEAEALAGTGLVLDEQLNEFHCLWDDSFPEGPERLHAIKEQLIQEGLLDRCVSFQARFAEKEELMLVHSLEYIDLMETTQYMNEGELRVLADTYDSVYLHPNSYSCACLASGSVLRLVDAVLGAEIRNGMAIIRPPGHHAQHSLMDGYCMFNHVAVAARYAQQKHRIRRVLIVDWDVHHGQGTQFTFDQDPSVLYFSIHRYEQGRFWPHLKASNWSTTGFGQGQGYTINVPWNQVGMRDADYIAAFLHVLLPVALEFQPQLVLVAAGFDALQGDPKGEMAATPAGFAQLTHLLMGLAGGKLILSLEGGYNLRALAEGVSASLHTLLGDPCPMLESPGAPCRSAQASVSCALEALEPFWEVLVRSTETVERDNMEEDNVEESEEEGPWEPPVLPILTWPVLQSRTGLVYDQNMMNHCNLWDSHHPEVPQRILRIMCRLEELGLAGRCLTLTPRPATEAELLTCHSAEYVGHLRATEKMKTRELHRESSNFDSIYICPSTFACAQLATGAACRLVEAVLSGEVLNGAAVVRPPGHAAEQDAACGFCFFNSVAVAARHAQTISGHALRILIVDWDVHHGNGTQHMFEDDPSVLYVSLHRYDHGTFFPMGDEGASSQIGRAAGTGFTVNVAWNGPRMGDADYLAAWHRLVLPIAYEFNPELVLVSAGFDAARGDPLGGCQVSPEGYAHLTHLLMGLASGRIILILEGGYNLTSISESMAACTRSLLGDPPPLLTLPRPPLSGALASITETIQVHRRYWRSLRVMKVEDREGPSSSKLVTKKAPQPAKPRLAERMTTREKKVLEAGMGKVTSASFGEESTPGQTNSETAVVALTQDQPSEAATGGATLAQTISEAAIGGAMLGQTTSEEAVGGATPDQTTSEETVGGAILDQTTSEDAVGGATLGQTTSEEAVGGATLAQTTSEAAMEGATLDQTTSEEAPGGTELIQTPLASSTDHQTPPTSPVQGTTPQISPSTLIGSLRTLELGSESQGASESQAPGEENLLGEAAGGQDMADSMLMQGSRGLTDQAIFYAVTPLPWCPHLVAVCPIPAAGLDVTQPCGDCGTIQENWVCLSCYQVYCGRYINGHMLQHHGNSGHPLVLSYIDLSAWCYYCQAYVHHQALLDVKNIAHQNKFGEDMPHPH
Description: FLAG-tagged HDAC pBJ5 constructs were transiently transfected by electroporation with 5 μg DNA for expression of recombinant proteins (C. M. Grozinger, C. A. Hassig and S. L. Schreiber, Proc. Natl. Acad. Sci. USA, 27, 4868 (1999); and C. A. Hassig et al., Proc. Natl. Acad. Sci. USA 95, 3519 (1998)]. Cells were mock transfected without DNA or with a non-FLAG-tagged pCMV-LacZ construct as a negative control. Forty-eight hours after transfection recombinant proteins were immunoprecipitated using anti-FLAG M2 agarose affinity gel beads as described [C. A. Hassig et al., Proc. Natl. Acad. Sci. USA 95, 3519 (1998)]. Western blotting using anti-acetylated α-tubulin (1:1000) anti-tubulin (1:1000), and anti-acetylated (K9, K14) histone H3 (1:1000) antibodies was performed using standard methods (K. M. Koeller et al., Chemistry & Biology, 10 (5) (2003) pp. 397-410). […]
[^3H]Acetate-incorporated histones were isolated from butyrate-treated HeLa cells as described [J. Taunton, C. […] Immunoprecipitates were incubated with acetylated histones and HDAC activity determined by scintillation counting as described [J. Taunton, C. […] After centrifugation, the supernatant (diluted to 0.4 μg tubulin) and α-FLAG M2 agarose affinity gel beads were analyzed by western blotting with an anti-FLAG M2 antibody (1:1750) to ensure equal protein levels.

A549 cells [2] = assay: mitotic abnormalities by immunofluorescence; type: cell-based, human; conditions: 18 h or 24 h treatment, TSA 10 μM in FIG. 42C
Description: Detection of acetylated α-tubulin and acetylated histones by immunofluorescence was performed as described in Example 6 above. For determining microtubule stability, A549 cells were treated as indicated, fixed in glutaraldehyde, and stained for acetylated α-tubulin and total α-tubulin in antibody dilution buffer (ADB, Tris-buffered saline (TBS), 0.15 M NaCl, 0.02 M Tris-Cl, pH 7.4, with 2% bovine serum albumin and 0.1% Triton-X 100). For cold-depolymerization, cells were incubated at 4° C. or 37° C. for an additional 90 minutes before fixation. For calcium depolymerization, cells were incubated at 37° C. for 10 minutes in a microtubule-stabilizing buffer (0.2% NP-40, 5 mM MgCl2, 2 mM EGTA, 2 M glycerol, 100 mM PIPES, pH 6.8) with and without the addition of CaCl2 (2 mM) before glutaraldehyde fixation. For co-localization experiments, biotubacin (50 μM) treated A549 cells were fixed in 3.7% formaldehyde in TBS and processed as for detecting acetylated α-tubulin (See Example 6 above) with biotubacin detected using streptavidin-TR (1:500). HDAC6 was detected using a rabbit polyclonal antibody (1:250-1:750; C.M.G., unpublished data) under the conditions used to detect acetylated α-tubulin (See Example 6 above). Filamentous actin in HT-1080 cells was detected using TR-conjugated phalloidin (1 μg/mL), and depolymerized actin using FITC-conjugated deoxyribonuclease (10 μg/mL), following fixation in 3.7% formaldehyde in TBS. p58 (1:100) in NIH-3T3 cells was detected after fixation in 3.7% formaldehyde in TBS. Images for these experiments were collected on a Zeiss LSM510 confocal scanning laser microscope at the appropriate wavelengths using the accompanying software and processed with Adobe Photoshop. Deconvoluted serial images of TSA and DMSO treated A549 cells were obtained by taking sections (8μ) on a Zeiss Axioskop 2 microscope using an AxioCam camera and the accompanying software. Rat hippocampal neuronal cultures were fixed at room temperature for 15 min in phosphate-buffered saline (PBS) containing 4% paraformaldehyde. […]

Row | Structure (SMILES) | effect on cell cycle / DNA synthesis (A549 cells [1]) | inhibition of HDAC activity of HDAC6F H611A mutant (HDAC6F H611A mutant) | mitotic abnormalities (A549 cells [2]) | effect on cell morphology (A549 cells [1]) | effect on cell cycle / DNA synthesis (A549 cells [1]; listed as JCWII114) | effect on cell morphology (A549 cells [1]; listed as JCWII114)
1 | CC(/C=C/C(=O)NO)=C\[C@@H](C)C(=O)c1ccc(N(C)C)cc1 [TSA, trichostatin A, reference compound] | marked loss of a BrdU-positive S-phase population | not inhibited by either TSA or tubacin | Mitotic abnormalities in A549 cells induced by TSA; also recorded: caused a significant number of abnormal mitotic cells |  |  | 
2 | O=C(CCCCCCC(=O)Nc1ccc([C@@H]2OC(c3ccc(CO)cc3)C[C@H](CSc3nc(-c4ccccc4)c(-c4ccccc4)o3)O2)cc1)NO (stereo partly drawn) [tubacin] | No effect of tubacin on DNA synthesis or cell cycle distribution; also recorded: had no such effects | not inhibited by either TSA or tubacin | did not increase the frequency of mitotic abnormalities; also recorded: had neither an effect on the number of mitotic cells nor spindle morphology | had no overall effect on the morphology of A549 cells | no apparent affect on the cell cycle or on cell morphology | no apparent affect on the cell cycle or on cell morphology
